Tested on: K24384-001-R-PDC complex spheroid viability
Test: Anticancer human tumor K24384-001-R-PDC patient-derived pancreatic adenocarcinoma cell line growth inhibition
Settings: for IC50: curve of first compound; for viability, T/C: stronger effect = lower value
How it was run: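 Multicellular complex spheroids of tumor cells with human endothelial cells (HUVEC) and mesenchymal stem cells; the LSD1 inhibitor iadademstat was combined with standard-of-care or investigational agents. Top concentration at or near clinical Cmax, half-log dilutions; final DMSO ≤0.25%.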

[1] = second compound 0.1 µM, first compound 0.000949 µM
[2] = second compound 0.1 µM, first compound 0.003 µM
[3] = second compound 0.1 µM, first compound 0.00949 µM
[4] = second compound 0.1 µM, first compound 0.03 µM
[5] = second compound 0.1 µM, first compound 0.0949 µM
[6] = second compound 0.1 µM, first compound 0.3 µM
[7] = second compound 0.316 µM, first compound 0.000949 µM
[8] = second compound 0.316 µM, first compound 0.003 µM
[9] = second compound 0.316 µM, first compound 0.00949 µM
[10] = second compound 0.316 µM, first compound 0.03 µM
[11] = second compound 0.316 µM, first compound 0.0949 µM
[12] = second compound 0.316 µM, first compound 0.3 µM
[13] = second compound 1 µM, first compound 0.000949 µM
[14] = second compound 1 µM, first compound 0.003 µM
[15] = second compound 1 µM, first compound 0.00949 µM
[16] = second compound 1 µM, first compound 0.03 µM
[17] = second compound 1 µM, first compound 0.0949 µM
[18] = second compound 1 µM, first compound 0.3 µM
[19] = second compound 3.16 µM, first compound 0.000949 µM
[20] = second compound 3.16 µM, first compound 0.003 µM
[21] = second compound 3.16 µM, first compound 0.00949 µM
[22] = second compound 3.16 µM, first compound 0.03 µM
[23] = second compound 3.16 µM, first compound 0.0949 µM
[24] = second compound 3.16 µM, first compound 0.3 µM
[25] = second compound 10 µM, first compound 0.000949 µM
[26] = second compound 10 µM, first compound 0.003 µM
[27] = second compound 10 µM, first compound 0.00949 µM
[28] = second compound 10 µM, first compound 0.03 µM
[29] = second compound 10 µM, first compound 0.0949 µM
[30] = second compound 10 µM, first compound 0.3 µM
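Also: spheroids exposed to agents for seven days before luminescence viability reading.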
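For viability, T/C in this document: 100% = DMSO vehicle control viability.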

Row | SMILES | IC50 (second compound 0.1 µM) | IC50 (second compound 0.316 µM) | IC50 (second compound 1 µM) | IC50 (second compound 3.16 µM) | IC50 (second compound 10 µM) | viability, T/C [1] | viability, T/C [2] | viability, T/C [3] | viability, T/C [4] | viability, T/C [5] | viability, T/C [6] | viability, T/C [7] | viability, T/C [8] | viability, T/C [9] | viability, T/C [10] | viability, T/C [11] | viability, T/C [12] | viability, T/C [13] | viability, T/C [14] | viability, T/C [15] | further results
1 | CCc1c2c(nc3ccc(O)cc13)-c1cc3c(c(=O)n1C2)COC(=O)[C@]3(O)CC + NC1CC1c1ccc(-c2cccc(O)c2)cc1 | < 0.000949 µM | < 0.000949 µM | < 0.000949 µM | < 0.000949 µM | < 0.000949 µM | 38.8% | 32.7% | 28.5% | 8.07% | 5.66% | 4.56% | 34.2% | 30.9% | 31.5% | 10.9% | 8.49% | 5.16% | 36.8% | 34.2% | 26.4% | viability, T/C [16]: 7.42%; viability, T/C [17]: 4.74%; viability, T/C [18]: 4.43%; viability, T/C [19]: 37.1%; viability, T/C [20]: 33.7%; viability, T/C [21]: 25.8%; viability, T/C [22]: 7.05%; viability, T/C [23]: 4.62%; viability, T/C [24]: 4.99%; viability, T/C [25]: 43.4%; viability, T/C [26]: 34.2%; viability, T/C [27]: 24%; viability, T/C [28]: 5.88%; viability, T/C [29]: 5.79%; viability, T/C [30]: 4.12%
2 | Nc1ccn(C2OC(CO)C(O)C2(F)F)c(=O)n1 (stereo not given) + NC1CC1c1ccc(-c2cccc(O)c2)cc1 | 0.0283 µM | 0.043 µM | 0.0381 µM | 0.046 µM | 0.0909 µM | 82.5% | 72.9% | 63.4% | 48% | 41.9% | 37.2% | 87.9% | 73.4% | 68% | 49.5% | 44.9% | 35.8% | 75% | 84.5% | 63.6% | viability, T/C [16]: 53.2%; viability, T/C [17]: 41.1%; viability, T/C [18]: 32%; viability, T/C [19]: 98.5%; viability, T/C [20]: 81.2%; viability, T/C [21]: 67.1%; viability, T/C [22]: 56%; viability, T/C [23]: 42.1%; viability, T/C [24]: 31.5%; viability, T/C [25]: 103%; viability, T/C [26]: 99%; viability, T/C [27]: 95.5%; viability, T/C [28]: 69.3%; viability, T/C [29]: 51.3%; viability, T/C [30]: 40.2%

Reference: PubChem BioAssay AID1918949 (Molecular Pharmacology Branch, DTP, NCI, 2023)
